Bridge positions count the residues as written; N and C are the ends. Square brackets hold non-standard residues; d marks the D form. Peptide text beside a SMILES is read from it. I, II: the chains in the order shown. * marks the point of attachment. DOTA = O=C(O)CN1CCN(CC(=O)O)CCN(CC(=O)*)CCN(CC(=O)O)CC1; Nle = CCCC[C@H](N)C(=O)O; Dap = NC[C@H](N)C(=O)O
Key:
[1] = molecular target: T1, NPY Y1 receptor (Homo sapiens, UniProt P25929); assay: Receptor autoradiography competition binding (125I-hPYY) on SK-N-MC cell membrane pellet sections; details: for IC50: SK-N-MC membrane pellets, 125I-hPYY displacement, mean ± SEM, n ≥ 3, read-out: Binding affinity Y1 (IC50)
T1 construct: SK-N-MC cells endogenously expressing Y1; host or cells: SK-N-MC
T1 sequence (P25929 1-384): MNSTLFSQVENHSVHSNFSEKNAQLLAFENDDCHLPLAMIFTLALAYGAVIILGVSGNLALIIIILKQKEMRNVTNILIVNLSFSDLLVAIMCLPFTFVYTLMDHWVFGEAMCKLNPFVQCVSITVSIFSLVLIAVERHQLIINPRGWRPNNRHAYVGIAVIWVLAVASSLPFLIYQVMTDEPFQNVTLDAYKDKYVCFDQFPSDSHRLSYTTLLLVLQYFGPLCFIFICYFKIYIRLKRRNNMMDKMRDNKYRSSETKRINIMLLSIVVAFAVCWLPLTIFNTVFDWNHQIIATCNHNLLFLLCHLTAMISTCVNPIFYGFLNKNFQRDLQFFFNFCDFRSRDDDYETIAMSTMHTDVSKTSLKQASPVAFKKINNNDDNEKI
Procedure: (§1) The neuroepithelioma cell line SK-N-MC endogenously expressing the NPY Y1 receptor was obtained from ATCC (HTB-10; LGC Standards, Teddington, Middlesex, UK) and cultured at 37°C and 5% CO2 in MEM with GlutaMax I and supplemented with 10% FBS, 100 U/ml penicillin and 100 μg/ml streptomycin, 1 mM MEM sodium pyruvate, and MEM non-essential amino acids (× 1). The neuroblastoma cell line SH-SY5Y endogenously expressing the NPY Y2 receptor, kindly provided by Dr. Paolo Paganetti (Novartis, Basel, Switzerland), was cultured at 37°C and 5% CO2 in MEM/Ham's F12 with GlutaMax I and supplemented with 10% FBS, 100 U/ml penicillin and 100 μg/ml streptomycin, 1 mM MEM sodium pyruvate, and MEM non-essential amino acids (× 1). All culture reagents were from Gibco BRL, Life Technologies, (Grand Island, NY, USA).
(§2) Binding affinities of the compounds were assessed using sections of cell membrane pellets of SK-N-MC for Y1 or SH-SY5Y for Y2, as described before. Briefly, membrane pellets were prepared and stored at -80°C, and receptor autoradiography was performed on 20-μm-thick cryostat (Microm HM 500, Walldorf, Germany) sections of the membrane pellets, mounted on microscope slides and stored at -20°C as previously described for other cell lines and receptors. The slides were preincubated in Krebs-Ringer solution (NaCl 119 mM, KCl 3.2 mM, KH2PO4 1.19 mM, MgSO4 1.19 mM, NaHCO3 25 mM, CaCl2 2.53 mM, D-glucose 10 mM; pH 7.4) for 60 min at room temperature. Then, they were incubated for 120 min in the incubation solution containing the Krebs-Ringer solution, 0.1% BSA, 0.05% bacitracin, and 10,000 cpm/100 μl of the ^125I-labeled human PYY (hPYY; 2,000 Ci/mmol; Anawa, Wangen, Switzerland). Membrane pellet sections were incubated with ^125I-hPYY in increasing concentrations ranging from 0.1 nM up to 1,000 nM of non-labeled hPYY, as control, or with the compounds to be tested. After the incubation, the slides were washed two times for 5 min and then rinsed four times in ice-cold preincubation solution. After drying, the slides were exposed to Kodak films Biomax MR® for 7 days. IC50 values were calculated after quantification of the data using a computer-assisted image processing system (Analysis Imaging System, Interfocus, Mering, Germany). Tissue standards (autoradiographic [^125I] and/or [^14C] microscales, GE Healthcare, Little Chalfont, UK) containing a known amount of isotope, cross-calibrated to tissue-equivalent ligand concentrations were used for quantification.

[2] = molecular target: T2, NPY Y2 receptor (Homo sapiens, UniProt P49146); assay: Receptor autoradiography competition binding (125I-hPYY) on SH-SY5Y cell membrane pellet sections; details: SH-SY5Y membrane pellets, 125I-hPYY displacement; n ≥ 3; read-out: Binding affinity Y2 (IC50)
T2 construct: SH-SY5Y cells endogenously expressing Y2; endogenous in cells; host or cells: SH-SY5Y
T2 sequence (P49146 1-381): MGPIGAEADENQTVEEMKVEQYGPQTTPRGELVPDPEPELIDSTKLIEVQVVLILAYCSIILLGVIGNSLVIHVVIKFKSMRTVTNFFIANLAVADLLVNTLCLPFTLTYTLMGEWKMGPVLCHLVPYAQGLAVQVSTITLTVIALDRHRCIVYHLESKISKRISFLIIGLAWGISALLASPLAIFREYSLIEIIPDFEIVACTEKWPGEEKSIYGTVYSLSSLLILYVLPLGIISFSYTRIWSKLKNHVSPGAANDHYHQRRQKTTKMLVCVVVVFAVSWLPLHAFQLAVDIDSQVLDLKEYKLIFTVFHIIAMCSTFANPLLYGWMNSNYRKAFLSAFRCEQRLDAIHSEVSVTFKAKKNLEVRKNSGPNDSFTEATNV
Procedure: as §1, §2

| Compound | IC50 [1] [nM] | IC50 [2] [nM] | Y1 binding affinity in words (displacement of 125I-hPYY) ([1]; SK-N-MC cell membrane pellet sections) |
| --- | --- | --- | --- |
| CC[C@H](C)[C@H](N)C(=O)N[C@@H](CC(N)=O)C(=O)N1CCC[C@H]1C(=O)N[C@@H](CSSC[C@H](NC(=O)[C@@H]1CCCN1C(=O)[C@H](CC(N)=O)NC(=O)[C@@H](N)[C@@H](C)CC)C(=O)N[C@@H](Cc1ccc(O)cc1)C(=O)N[C@@H](CCCNC(=N)N)C(=O)N[C@@H](CC(C)C)C(=O)N[C@@H](CCCNC(=N)N)C(=O)N[C@@H](Cc1ccc(O)cc1)C(N)=O)C(=O)N[C@@H](Cc1ccc(O)cc1)C(=O)N[C@@H](CCCNC(=N)N)C(=O)N[C@@H](CC(C)C)C(=O)N[C@@H](CCCNC(=N)N)C(=O)N[C@@H](Cc1ccc(O)cc1)C(N)=O [Analog 1, Bis(31/31')[Pro^30, Cys^31, Tyr^32, Leu^34]NPY(28-36)-NH2, reference compound] (I: H-INPCYRLRY-NH2 / II: H-INPCYRLRY-NH2; disulfide I:4-II:4) | 11 ± 7 | > 1000 |  |
| CC[C@H](C)[C@H](NC(=O)CN1CCN(CC(=O)O)CCN(CC(=O)O)CCN(CC(=O)O)CC1)C(=O)N[C@@H](CC(N)=O)C(=O)N1CCC[C@H]1C(=O)N[C@@H](CSSC[C@H](NC(=O)[C@@H]1CCCN1C(=O)[C@H](CC(N)=O)NC(=O)[C@@H](NC(=O)CN1CCN(CC(=O)O)CCN(CC(=O)O)CCN(CC(=O)O)CC1)[C@@H](C)CC)C(=O)N[C@@H](Cc1ccc(O)cc1)C(=O)N[C@@H](CCCNC(=N)N)C(=O)N[C@@H](CC(C)C)C(=O)N[C@@H](CCCNC(=N)N)C(=O)N[C@@H](Cc1ccc(O)cc1)C(N)=O)C(=O)N[C@@H](Cc1ccc(O)cc1)C(=O)N[C@@H](CCCNC(=N)N)C(=O)N[C@@H](CC(C)C)C(=O)N[C@@H](CCCNC(=N)N)C(=O)N[C@@H](Cc1ccc(O)cc1)C(N)=O [Analog 2] (I: {DOTA}-INPCYRLRY-NH2 / II: {DOTA}-INPCYRLRY-NH2; disulfide I:4-II:4) | 143 ± 37 | > 1000 |  |
| CCCC[C@H](NC(=O)[C@H](CCCNC(=N)N)NC(=O)[C@H](Cc1c[nH]c2ccccc12)NC(=O)[C@H](CSSC[C@H](NC(=O)[C@@H]1CCCN1C(=O)[C@H](CC(N)=O)NC(=O)[C@@H](NC(=O)CN1CCN(CC(=O)O)CCN(CC(=O)O)CCN(CC(=O)O)CC1)[C@@H](C)CC)C(=O)N[C@@H](Cc1c[nH]c2ccccc12)C(=O)N[C@@H](CCCNC(=N)N)C(=O)N[C@@H](CCCC)C(=O)N[C@@H](CCCNC(=N)N)C(=O)N[C@@H](Cc1ccc(O)cc1)C(N)=O)NC(=O)[C@@H]1CCCN1C(=O)[C@H](CC(N)=O)NC(=O)[C@@H](NC(=O)CN1CCN(CC(=O)O)CCN(CC(=O)O)CCN(CC(=O)O)CC1)[C@@H](C)CC)C(=O)N[C@@H](CCCNC(=N)N)C(=O)N[C@@H](Cc1ccc(O)cc1)C(N)=O [Analog 4] (I: {DOTA}-INPCWR[Nle]RY-NH2 / II: {DOTA}-INPCWR[Nle]RY-NH2; disulfide I:4-II:4) | 294 ± 33 | > 1000 |  |
| CCCC[C@H](NC(=O)[C@H](CCCNC(=N)N)NC(=O)[C@H](Cc1c[nH]c2ccccc12)NC(=O)[C@H](CSSC[C@H](NC(=O)[C@@H]1CCCN1C(=O)[C@H](CNC(=O)CN1CCN(CC(=O)O)CCN(CC(=O)O)CCN(CC(=O)O)CC1)NC(=O)[C@@H](N)[C@@H](C)CC)C(=O)N[C@@H](Cc1c[nH]c2ccccc12)C(=O)N[C@@H](CCCNC(=N)N)C(=O)N[C@@H](CCCC)C(=O)N[C@@H](CCCNC(=N)N)C(=O)N[C@@H](Cc1ccc(O)cc1)C(N)=O)NC(=O)[C@@H]1CCCN1C(=O)[C@H](CNC(=O)CN1CCN(CC(=O)O)CCN(CC(=O)O)CCN(CC(=O)O)CC1)NC(=O)[C@@H](N)[C@@H](C)CC)C(=O)N[C@@H](CCCNC(=N)N)C(=O)N[C@@H](Cc1ccc(O)cc1)C(N)=O [Analog 6] (I: H-I[Dap](DOTA)PCWR[Nle]RY-NH2 / II: H-I[Dap](DOTA)PCWR[Nle]RY-NH2; disulfide I:4-II:4) | > 1000 | > 1000 |  |
| hPYY: non-labeled human peptide YY, used as control in the binding assay [reference compound] |  |  | high-affinity displacements of ^125I-hPYY |

The next lines start with results.

| IC50 [1] [nM] | IC50 [2] [nM] | Compound | Y1 binding affinity in words (displacement of 125I-hPYY) ([1]; SK-N-MC cell membrane pellet sections) |
| --- | --- | --- | --- |
| 9 ± 3 | > 1000 | CCCC[C@H](NC(=O)[C@H](CCCNC(=N)N)NC(=O)[C@H](Cc1c[nH]c2ccccc12)NC(=O)[C@H](CSSC[C@H](NC(=O)[C@@H]1CCCN1C(=O)[C@H](CC(N)=O)NC(=O)[C@@H](N)[C@@H](C)CC)C(=O)N[C@@H](Cc1c[nH]c2ccccc12)C(=O)N[C@@H](CCCNC(=N)N)C(=O)N[C@@H](CCCC)C(=O)N[C@@H](CCCNC(=N)N)C(=O)N[C@@H](Cc1ccc(O)cc1)C(N)=O)NC(=O)[C@@H]1CCCN1C(=O)[C@H](CC(N)=O)NC(=O)[C@@H](N)[C@@H](C)CC)C(=O)N[C@@H](CCCNC(=N)N)C(=O)N[C@@H](Cc1ccc(O)cc1)C(N)=O [Analog 3] (I: H-INPCWR[Nle]RY-NH2 / II: H-INPCWR[Nle]RY-NH2; disulfide I:4-II:4) |  |
| 143 ± 20 | > 1000 | CCCC[C@H](NC(=O)[C@H](CCCNC(=N)N)NC(=O)[C@H](Cc1c[nH]c2ccccc12)NC(=O)[C@H](CSSC[C@H](NC(=O)[C@@H]1CCCN1C(=O)[C@H](CN)NC(=O)[C@@H](N)[C@@H](C)CC)C(=O)N[C@@H](Cc1c[nH]c2ccccc12)C(=O)N[C@@H](CCCNC(=N)N)C(=O)N[C@@H](CCCC)C(=O)N[C@@H](CCCNC(=N)N)C(=O)N[C@@H](Cc1ccc(O)cc1)C(N)=O)NC(=O)[C@@H]1CCCN1C(=O)[C@H](CN)NC(=O)[C@@H](N)[C@@H](C)CC)C(=O)N[C@@H](CCCNC(=N)N)C(=O)N[C@@H](Cc1ccc(O)cc1)C(N)=O [Analog 5] (I: H-I[Dap]PCWR[Nle]RY-NH2 / II: H-I[Dap]PCWR[Nle]RY-NH2; disulfide I:4-II:4) |  |
| 19 ± 5 | > 1000 | CCCC[C@H](NC(=O)[C@H](CCCNC(=N)N)NC(=O)[C@H](Cc1c[nH]c2ccccc12)NC(=O)[C@H](CSSC[C@H](NC(=O)[C@@H]1CCCN1C(=O)[C@H](CC(N)=O)NC(=O)[C@@H](N)[C@@H](C)CC)C(=O)N[C@@H](Cc1c[nH]c2ccccc12)C(=O)N[C@@H](CCCNC(=N)N)C(=O)N[C@@H](CCCC)C(=O)N[C@@H](CCCNC(=N)N)C(=O)N[C@@H](Cc1ccc(O)cc1)C(N)=O)NC(=O)[C@@H]1CCCN1C(=O)[C@H](CN)NC(=O)[C@@H](N)[C@@H](C)CC)C(=O)N[C@@H](CCCNC(=N)N)C(=O)N[C@@H](Cc1ccc(O)cc1)C(N)=O [Analog 7] (I: H-I[Dap]PCWR[Nle]RY-NH2 / II: H-INPCWR[Nle]RY-NH2; disulfide I:4-II:4) |  |
